Molecules are shown by their SMILES. Like-named read-outs stand apart in the source and are kept apart here.

The target in experiment [1] is T1, BTK (Homo sapiens (Human), UniProt Q06187). As to the kind of experiment: Omnia assay for potency assessment against BTK. In kind it is biochemical. As to conditions: [BTK]=5 nM, Omnia assay; read-out: BTK Inhibition (IC50). As to the method: The modified BTK-optimized reagent conditions for the above protocol are:
[BTK]=5 nM, [ATP]=[…], [Y5-Sox]=[…] (ATP KMapp˜[…]).

In experiment [2] the target is T1, BTK. As to the kind of experiment: Washout experiment with Ramos cells. As to conditions: 100 nM compound for 1 hour, then washout. In kind it is cell-based. How it is done: Ramos cells were serum starved for one hour in RPMI media+1% glutamine at 37° C. After starvation, Ramos cells were treated with 100 nM compound diluted in serum free RPMI media for 1 hour. After compound treatment, the media was removed and cells were washed with compound-free media. Subsequently, Ramos cells were washed every 2 hours and resuspended in fresh compound-free media. Cells were collected at specified timepoints, treated with 1 ug anti-human IgM (Southern Biotech cat #2022-01) for 10 minutes on ice to induce BCR signaling and then washed in PBS. Ramos cells were then lysed in Cell Extraction Buffer (Invitrogen FNN0011) supplemented with Roche complete protease inhibitor tablets (Roche 11697498001) and phosphatase inhibitors (Roche 04 906 837 001) and 18 ug total protein lysate was loaded in each lane. Inhibition of BTK kinase activity was assayed by measuring its substrate (PLCγ2) phosphorylation by western blot with phospho-specific antibodies from Cell Signaling Technologies cat #3871. The results of this experiment with compounds I-2, I-4 and I-7 are depicted in FIGS. 1, 2 and 3.

For a further experiment, the target named is ITK (Homo sapiens (Human), UniProt Q08881). Description: Omnia assay for potency assessment against active forms of ITK kinase. As to conditions: [ITK]=10 nM, [ATP]=25, [Y6-Sox]=10 μM; read-out: ITK Inhibition. In kind it is biochemical. How it is done:
[ITK]=10 nM, [ATP]=25 [Y6-Sox]=10 μM (ATP KMapp=33 μM).

In a further experiment the target is BMX (Homo sapiens (Human), UniProt P51813). As to the kind of experiment: Omnia assay for potency assessment against active forms of BMX kinase. In kind it is biochemical. The settings on record: [BMX]=2.5 nM, [ATP]=100 μM, [Y5-Sox]=7.5 μM; read-out: BMX Inhibition. How it is done:
Briefly, 10× stocks of EGFR-WT (PV3872) from Invitrogen and EGFR-T790M/L858R (40350) from BPS Bioscience, San Diego, Calif., 1.13×ATP (AS001A) and appropriate Tyr-Sox conjugated peptide substrates (KCZ1001) were prepared in 1× kinase reaction buffer consisting of 20 mM Tris, pH 7.5, 5 mM MgCl2, 1 mM EGTA, 5 mM β-glycerophosphate, 5% glycerol (10× stock, KB002A) and 0.2 mM DTT (DS001A).
This example describes continuous-read kinase assays to measure inherent potency of compound against active forms of BMX enzymes as described in Example 251 above except that the modified BMX-optimized reagent conditions are:
[BMX]=2.5 nM, [ATP]=100 μM, [Y5-Sox]=7.5 μM (ATP KMapp=107 μM).

A further experiment has as its target EGFR-WT (Homo sapiens (Human), UniProt P00533). Description: Omnia assay for potency assessment against EGFR (WT).
Experiment [3] addresses T1, BTK. Description: BTK Ramos cellular assay (PLCγ2 phosphorylation). In kind it is cell-based. As to conditions: Ramos cells, 1 hour compound, anti-IgM stimulation, p-PLCγ2; read-out: BTK Inhibition (IC50), BTK Ramos cellular inhibition.
The next experiment concerns the target EGFR-T790M/L858R (Homo sapiens (Human), UniProt P00533, L858R/T790M). Description: Omnia assay for potency assessment against EGFR (T790M/L858R). As to conditions: read-out: EGFR (T790M/L858R); EGFR mutant T790M/L858R.
In experiment [4] the target is T1, BTK. Description: Mass spectrometry for BTK (intact protein). In kind it is binding. As to conditions: 1 hr, 10× fold excess of compound. As to the method: Intact BTK was incubated for 1 hr at a 10× fold excess of I-7 to protein. Aliquots (2 μl) of the samples were diluted with 10 μl of 0.1% TFA prior to micro C4 ZipTipping directly onto the MALDI target using Sinapinic acid as the desorption matrix (10 mg/ml in 0.1% TFA:Acetonitrile 20:80).

[5] abbreviates: read-out: EGFR (wild type inhibition), EGFR wild type.

T1 sequence (Q06187 whole entry): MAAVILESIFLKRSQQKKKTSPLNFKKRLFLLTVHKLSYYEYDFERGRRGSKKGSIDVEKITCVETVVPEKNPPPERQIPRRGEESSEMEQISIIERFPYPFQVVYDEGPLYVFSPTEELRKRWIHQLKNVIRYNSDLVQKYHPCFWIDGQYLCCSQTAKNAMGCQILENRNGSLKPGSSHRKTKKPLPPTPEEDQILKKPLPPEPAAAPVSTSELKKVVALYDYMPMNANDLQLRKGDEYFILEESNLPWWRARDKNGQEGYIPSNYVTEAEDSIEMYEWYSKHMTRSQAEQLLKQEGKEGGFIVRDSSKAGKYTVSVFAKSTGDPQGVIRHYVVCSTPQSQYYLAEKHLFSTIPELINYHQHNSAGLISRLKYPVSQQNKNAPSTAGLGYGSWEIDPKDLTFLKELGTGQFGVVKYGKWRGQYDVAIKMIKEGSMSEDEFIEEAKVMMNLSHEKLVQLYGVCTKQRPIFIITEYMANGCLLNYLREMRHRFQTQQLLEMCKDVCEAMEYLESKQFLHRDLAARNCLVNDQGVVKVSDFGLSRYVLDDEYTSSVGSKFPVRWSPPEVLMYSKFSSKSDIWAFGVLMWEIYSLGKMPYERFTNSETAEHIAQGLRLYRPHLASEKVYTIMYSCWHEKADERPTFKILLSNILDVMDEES
Sequence of BMX (P51813 whole entry): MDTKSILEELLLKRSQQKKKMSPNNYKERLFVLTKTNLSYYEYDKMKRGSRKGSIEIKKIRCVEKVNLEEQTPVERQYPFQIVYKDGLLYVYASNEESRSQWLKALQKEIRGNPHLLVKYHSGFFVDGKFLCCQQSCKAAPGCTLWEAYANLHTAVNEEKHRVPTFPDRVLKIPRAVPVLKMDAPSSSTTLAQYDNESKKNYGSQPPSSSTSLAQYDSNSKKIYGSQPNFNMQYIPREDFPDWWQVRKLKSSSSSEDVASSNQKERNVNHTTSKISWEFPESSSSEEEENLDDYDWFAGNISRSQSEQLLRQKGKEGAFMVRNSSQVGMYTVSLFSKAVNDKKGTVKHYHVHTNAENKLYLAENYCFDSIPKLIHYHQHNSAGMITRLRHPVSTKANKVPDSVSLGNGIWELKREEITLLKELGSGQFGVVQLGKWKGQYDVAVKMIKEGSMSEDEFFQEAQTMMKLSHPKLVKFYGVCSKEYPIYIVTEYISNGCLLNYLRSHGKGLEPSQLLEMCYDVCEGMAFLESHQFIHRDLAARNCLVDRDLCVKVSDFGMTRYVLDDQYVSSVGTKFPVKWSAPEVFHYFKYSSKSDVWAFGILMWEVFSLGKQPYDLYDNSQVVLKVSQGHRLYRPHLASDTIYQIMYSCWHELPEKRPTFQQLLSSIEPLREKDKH
Sequence of ITK (Q08881 whole entry): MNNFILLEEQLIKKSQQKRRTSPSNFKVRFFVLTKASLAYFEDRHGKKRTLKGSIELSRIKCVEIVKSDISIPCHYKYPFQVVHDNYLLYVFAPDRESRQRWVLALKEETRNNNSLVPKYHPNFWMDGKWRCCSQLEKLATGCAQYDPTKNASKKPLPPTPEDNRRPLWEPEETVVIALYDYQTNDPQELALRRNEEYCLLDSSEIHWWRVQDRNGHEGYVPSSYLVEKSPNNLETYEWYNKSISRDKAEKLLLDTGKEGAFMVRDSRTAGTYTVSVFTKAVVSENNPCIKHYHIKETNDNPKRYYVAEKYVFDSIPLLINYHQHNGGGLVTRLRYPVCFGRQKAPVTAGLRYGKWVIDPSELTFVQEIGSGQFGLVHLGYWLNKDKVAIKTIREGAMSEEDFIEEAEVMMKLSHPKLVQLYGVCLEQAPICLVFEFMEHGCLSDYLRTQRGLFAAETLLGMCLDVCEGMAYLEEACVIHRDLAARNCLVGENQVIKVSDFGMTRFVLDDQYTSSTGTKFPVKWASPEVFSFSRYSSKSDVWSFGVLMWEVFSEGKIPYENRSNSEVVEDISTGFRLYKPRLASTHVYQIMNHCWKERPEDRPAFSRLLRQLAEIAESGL
Sequence of EGFR-WT (P00533 668-1210): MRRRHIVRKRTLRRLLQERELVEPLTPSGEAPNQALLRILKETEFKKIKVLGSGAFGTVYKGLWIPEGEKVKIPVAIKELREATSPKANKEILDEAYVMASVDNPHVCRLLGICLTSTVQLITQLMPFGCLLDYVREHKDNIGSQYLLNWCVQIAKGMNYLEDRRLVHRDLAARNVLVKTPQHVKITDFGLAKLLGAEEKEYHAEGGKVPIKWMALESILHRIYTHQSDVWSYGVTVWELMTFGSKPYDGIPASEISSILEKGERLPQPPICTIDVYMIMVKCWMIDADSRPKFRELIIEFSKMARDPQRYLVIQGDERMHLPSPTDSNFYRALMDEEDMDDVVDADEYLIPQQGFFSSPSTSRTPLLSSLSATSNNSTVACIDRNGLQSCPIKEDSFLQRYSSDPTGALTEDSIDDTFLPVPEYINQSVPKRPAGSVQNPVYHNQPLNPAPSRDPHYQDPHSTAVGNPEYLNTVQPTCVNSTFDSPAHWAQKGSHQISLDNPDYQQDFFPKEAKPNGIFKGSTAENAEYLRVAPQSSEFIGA
Sequence of EGFR-T790M/L858R (P00533 25-1210 T790M/L858R): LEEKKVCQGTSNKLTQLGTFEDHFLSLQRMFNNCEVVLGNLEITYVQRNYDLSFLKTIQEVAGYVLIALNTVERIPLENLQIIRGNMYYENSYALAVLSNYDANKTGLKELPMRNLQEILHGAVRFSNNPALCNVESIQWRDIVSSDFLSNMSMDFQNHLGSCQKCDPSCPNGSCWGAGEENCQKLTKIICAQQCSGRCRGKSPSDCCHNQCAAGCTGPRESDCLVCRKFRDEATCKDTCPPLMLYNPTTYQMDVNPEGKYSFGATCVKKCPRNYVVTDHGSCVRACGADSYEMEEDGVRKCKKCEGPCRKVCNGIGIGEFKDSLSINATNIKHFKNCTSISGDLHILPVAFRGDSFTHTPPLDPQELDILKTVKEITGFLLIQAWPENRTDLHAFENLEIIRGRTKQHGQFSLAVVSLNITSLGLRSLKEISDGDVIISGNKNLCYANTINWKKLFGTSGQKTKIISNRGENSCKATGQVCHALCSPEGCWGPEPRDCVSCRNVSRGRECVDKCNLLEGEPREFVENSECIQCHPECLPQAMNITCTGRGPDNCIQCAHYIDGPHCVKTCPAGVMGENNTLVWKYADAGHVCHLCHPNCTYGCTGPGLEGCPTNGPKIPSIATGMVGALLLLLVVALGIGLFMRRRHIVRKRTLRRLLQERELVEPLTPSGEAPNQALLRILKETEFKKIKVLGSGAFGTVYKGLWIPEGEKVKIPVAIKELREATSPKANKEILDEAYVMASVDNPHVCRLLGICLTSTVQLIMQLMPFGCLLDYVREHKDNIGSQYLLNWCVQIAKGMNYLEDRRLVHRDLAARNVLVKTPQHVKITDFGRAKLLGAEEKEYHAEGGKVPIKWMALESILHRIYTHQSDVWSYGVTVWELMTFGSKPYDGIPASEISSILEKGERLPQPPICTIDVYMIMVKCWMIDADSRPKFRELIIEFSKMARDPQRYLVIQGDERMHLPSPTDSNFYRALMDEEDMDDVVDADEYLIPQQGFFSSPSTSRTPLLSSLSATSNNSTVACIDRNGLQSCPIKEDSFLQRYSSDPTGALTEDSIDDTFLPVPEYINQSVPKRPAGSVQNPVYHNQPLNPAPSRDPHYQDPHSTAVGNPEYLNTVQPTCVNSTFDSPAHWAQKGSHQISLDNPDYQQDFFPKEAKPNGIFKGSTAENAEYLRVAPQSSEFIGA

Take `C=CC(=O)Nc1cccc(Nc2nc(Nc3ccccc3)ncc2F)c1` [Compound I-28, N-(3-(5-fluoro-2-(phenylamino)pyrimidin-4-ylamino)phenyl)acrylamide]: the IC50 at BTK [1] is under 10 nM; at ITK it was 10 to 100 nM; on BMX, under 10 nM; against EGFR-WT it was 10 to 100 nM. Also, the “BTK Inhibition Type” value at BTK [2] is recorded as “irreversible”.
As to `C#CCOc1cccc(Nc2ncc(C)c(Nc3cccc(NC(=O)C=C)c3)n2)c1` [Compound I-35, N-(3-(5-methyl-2-(3-(prop-2-ynyloxy)phenylamino)pyrimidin-4-ylamino)phenyl) acrylamide], the IC50 on BTK [1] is under 10 nM; at BTK [3] it was under 10 nM; on ITK it was 10 to 100 nM; on BMX, under 10 nM; against EGFR-WT it was 10 to 100 nM; on EGFR-T790M/L858R it was under 10 nM. Further, on BTK [2], the “BTK Inhibition Type” value is listed as “irreversible”.
Turning to `Cc1cnc(Nc2ccccc2)nc1Nc1cccc(NC(=O)/C=C/CN(C)C)c1` [Compound I-38, (E)-4-(dimethylamino)-N-(3-(5-methyl-2-(phenylamino)pyrimidin-4-ylamino)phenyl)but-2-enamide], the IC50 is under 10 nM at BTK [1]; 10 to 100 nM at BTK [3]; 10 to 100 nM at ITK; under 10 nM on BMX; 10 to 100 nM against EGFR-WT; under 10 nM on EGFR-T790M/L858R. In addition, on BTK [2], the “BTK Inhibition Type” value is listed as “reversible”.
With `C=C(C#N)C(O)c1cccc(Nc2nc(Nc3ccc(OCCOC)cc3)ncc2F)c1` (stereo not shown) [Compound I-71, 2-((3-(5-fluoro-2-(4-(2-methoxyethoxy)phenylamino)pyrimidin-4-ylamino)phenyl)(hydroxy)methyl)acrylonitrile], the IC50 on BTK [1] is under 10 nM; against EGFR-WT it was 10 to 100 nM. In addition, the “covalent modification of BTK (mass spectrometry)” value (“covalent modification of BTK” for short) at BTK [4] is “completely modify”.
`C=CC(=O)N1CCOc2ccc(Nc3ncc(F)c(Nc4cccc(Cl)c4)n3)cc21` [Compound I-149, 1-(6-(4-(3-chlorophenylamino)-5-fluoropyrimidin-2-ylamino)-2H-benzo[b][1,4]oxazin-4(3H)-yl)prop-2-en-1-one]: the IC50 on BTK [1] is under 10 nM; at BTK [3] it was 10 to 100 nM; on ITK, 1000 to 10000 nM; on EGFR-WT (setting [5]), 1000 to 10000 nM. Besides, the “covalent modification of BTK” value at BTK [4] is on record as “completely modify”.
On to `C=C(C#N)C(O)c1ccc(Nc2nc(Nc3ccccc3)ncc2F)cc1` (stereo not shown) [Compound I-161, 2-((4-(5-fluoro-2-(phenylamino)pyrimidin-4-ylamino)phenyl)(hydroxy)methyl)acrylonitrile], for which the IC50 on BTK [1] was under 10 nM; on EGFR-WT, 10 to 100 nM. Further, the “covalent modification of BTK” value at BTK [4] is given as “completely modify”.
As for `C=CC(=O)N1CCC[C@@H](Nc2nc(Nc3cccc(OC)c3)ncc2F)C1` [Compound I-195, (R)-1-(3-(5-fluoro-2-(3-methoxyphenylamino)pyrimidin-4-ylamino)piperidin-1-yl)prop-2-en-1-one], the IC50 was under 10 nM on BTK [1], 10 to 100 nM on BTK [3], 10 to 100 nM on ITK and 10 to 100 nM at EGFR-WT. Further, the “covalent modification of BTK” value at BTK [4] is on record as “completely modify”.
`CC(C)=CC(=O)c1cccc(Nc2nc(Nc3cccc(OCCN(C)C)c3)ncc2F)c1` [Compound I-207]: the IC50 at BTK [1] is under 10 nM; on BTK [3] it was 100 to 1000 nM; at ITK it was under 10 nM; at EGFR-WT, 100 to 1000 nM. Moreover, the “covalent modification of BTK” value on BTK [4] was “completely modify”.
As for `C=CC(=O)N(C)Cc1ccc(Nc2nc(Nc3ccccc3)ncc2C)cc1` [Compound I-219, N-methyl-N-(4-(5-methyl-2-(phenylamino)pyrimidin-4-ylamino)benzyl)acrylamide], the IC50 is under 10 nM on BTK [1], 10 to 100 nM on BTK [3], 10 to 100 nM at ITK and 10 to 100 nM at EGFR-WT. On BTK [4], the “covalent modification of BTK” value is on record as “completely modify”.
Take `C=CC(=O)Nc1cccc(Oc2nc(Nc3ccccc3)ncc2F)c1` [Compound I-228, N-(3-(5-fluoro-2-(phenylamino)pyrimidin-4-yloxy)phenyl)acrylamide]: the IC50 on BTK [1] is under 10 nM; at BTK [3] it was under 10 nM; on ITK it was 10 to 100 nM; at EGFR-WT, 10 to 100 nM. For the same molecule, at BTK [2], the “BTK Inhibition Type” value was “irreversible”.
For `C=CC(=O)Nc1cccc(Nc2nc(Nc3ccccc3)ncc2C(N)=O)c1` [Compound I-230, 4-(3-acrylamidophenylamino)-2-(phenylamino)pyrimidine-5-carboxamide], the IC50 at BTK [1], at BTK [3] and at ITK was under 10 nM each time. Also, the “BTK Inhibition Type” value at BTK [2] was “irreversible”.
On to `C=CC(=O)Nc1cccc(Nc2nc(Nc3cccc(OC)c3)ncc2C(F)(F)F)c1` [Compound I-242, N-(3-(5-trifluoromethyl-2-(3-methoxyphenylamino)pyrimidin-4-ylamino)phenyl)acrylamide], for which the IC50 is under 10 nM on BTK [1], under 10 nM on BTK [3], under 10 nM on ITK and 10 to 100 nM at EGFR-WT. In addition, the “BTK Inhibition Type” value on BTK [2] is “irreversible”.
Consider `C=CC(=O)Nc1cccc(Nc2nc(Nc3ccc(OC)nc3)ncc2F)c1` [Compound I-243, N-(3-(5-fluoro-2-(6-methoxypyridin-3-ylamino)pyrimidin-4-ylamino)phenyl)acrylamide], for which the IC50 is under 10 nM at BTK [1], under 10 nM on BTK [3], 10 to 100 nM at ITK and 10 to 100 nM at EGFR-WT. Also, the “BTK Inhibition Type” value on BTK [2] is on record as “irreversible”.
Consider `C=CC(=O)Nc1cccc(Nc2nc(Nc3cccc(OC(F)(F)F)c3)ncc2F)c1` [Compound I-244, N-(3-(5-fluoro-2-(3-(trifluoromethoxy)phenylamino)pyrimidin-4-ylamino)phenyl)acrylamide], for which the IC50 is under 10 nM on BTK [1]; 10 to 100 nM on BTK [3]; 100 to 1000 nM on ITK; under 10 nM at BMX; 100 to 1000 nM on EGFR-WT. Further, the “covalent modification of BTK” value at BTK [4] is “completely modify”.
As for `C=CC(=O)Nc1cccc(Nc2nc(Nc3ccc(F)cc3)ncc2F)c1` [Compound I-247, N-(3-(5-fluoro-2-(4-fluorophenylamino)pyrimidin-4-ylamino)phenyl)acrylamide], the IC50 on BTK [1] was under 10 nM; at BTK [3], under 10 nM; on ITK it was 10 to 100 nM; on BMX it was under 10 nM; on EGFR-WT it was 10 to 100 nM. The “BTK Inhibition Type” value on BTK [2] is listed as “irreversible”.
In the case of `C=CC(=O)Nc1cccc(Oc2nc(Nc3ccccc3)ncc2C)c1` [Compound I-248, N-(3-(5-methyl-2-(phenylamino)pyrimidin-4-yloxy)phenyl)acrylamide], the IC50 at BTK [1], at BTK [3], at ITK, on BMX and at EGFR-WT (setting [5]) was under 10 nM in each case. Besides, on BTK [2], the “BTK Inhibition Type” value is on record as “irreversible”.

For the origin of these results see patent US9987276B2 (Celgene CAR LLC, priority 2008, dated 2018).
